Assay results from patent US4168206A, “Impregnated disk method for testing antifungal susceptibility” (Philadelphia College of Osteopathic Medicine, priority 1977, dated 1979).
In brackets after ≈: the same amount, converted by molar mass.

How the values were obtained:
Assay type in all cases: cell-based
Geotrichum candidum [1] = assay: MIC by impregnated disk method, Geotrichum candidum; conditions: disk method, read-out: Minimum Inhibitory Concentration, Disk
Procedure: (§1) Stock solutions of the antifungal agents to be tested are preferably prepared by diluting the antifungal agents in the proper nutrient medium. It is presently preferred to prepare dilutions in 10 ml of the proper medium to give the following final concentrations when applied to the disks (all quantities in micrograms per milliliter): 0.05, 0.08, 0.09, 0.1; 0.1 increment increases to 0.9, 1.0; 0.5 increment increases to 10.0; and 12.0, 14.0, 20.0, 25.0 and 50.0. Disks have been prepared by placing 0.05 ml of the above dilutions of antifungal agent containing medium on 6.5 mm diameter disks in 0.01 or 0.02 ml increments. The impregnated disks are then allowed to dry at a temperature preferably below about 10° C. […] The disks may also be dried by a lyophilization or freeze drying process.
(§2) To perform the tests in accordance with the present inventions, disks impregnated with various concentrations of antifungal agent and nutrient medium and a control disk impregnated only with the corresponding nutrient medium are placed on the fungus to be tested which has been applied to the non-nutrient medium. The disks are the inoculated non-nutrient medium are then incubated at a suitable temperature for a sufficient time to promote growth of the fungus. Any temperature is suitable if it will promote growth of the fungus without adversely affecting the fungus or the activity of the antifungal agent or agents tested. The time of incubation can be determined by observing the extent of growth around the control disk. […] The zones of growth or inhibition around the disks were read at 6, 12, 24, 36 and 48 hours after the disks were placed on the tested fungus.
(§3) The minimum inhibitory concentration is defined as the lowest concentration of antifungal agent which inhibits visible growth. […]
(§4) Several test disks and a control disk were placed in each petri dish containing the inoculated agar. The disks and petri dishes were then incubated at 29° C. and the minimum inhibitory concentration of the various concentrations of the antifungal agents were read at 6, 12, 24, 36 and 48 hours. […]

Cryptococcus neoformans [2] = assay: MIC by broth dilution method, Cryptococcus neoformans; conditions: Cryptococcus neoformans
Excerpt: (§5) The preparation of the nutrient media, the antifungal agents and the fungi to be tested in the present invention are similar to those reported in S. Shadomy and A. Espinel-Ingroff, "Susceptibility Testing Of Antifungal Agents", Ch. 63, pp. 569-574 in E. H. Lennett, E. H. Spaulding, and J. P. Truant, Eds., Manual Of Clinical Microbiology, 2nd Ed., American Society for Microbiology, Washington, D.C. (1974). This publication describes the susceptibility testing of antifungal agents, namely, amphotericin B, nystatin and 5-fluoro-cytosine (5-FC), by the "broth dilution method" and the "semisolid agar dilution method". At pages 570-571, it is stated:
(§6) In 10 duplicate runs with each strain tested, the variation in minimum inhibitory concentration averaged ±0.05 μg/ml.
(§7) *Broth dilution method conducted in accordance with S. Shadomy and E.
(§8) Espinel-Ingroff, "Susceptibility Testing of Antifungal Agents", Ch. 63,
(§9) pp. 569-574 in E. H. Spaulding and J. P. Truant, Eds., Manual Of Clinical
(§10) Microbiology, 2nd Ed., American Society for Microbiology, Washington, […]

Torulopsis glabrata [3] = assay: MIC by impregnated disk method, Torulopsis glabrata; conditions: Nakaseomyces glabratus; Torulopsis glabrata; disk method; read-out: Minimum Inhibitory Concentration, Disk
Procedure: as §1, §2, §3, §4

Saccharomyces cerevisiae [4] = assay: MIC by impregnated disk method, Saccharomyces cerevisiae; conditions: Saccharomyces cerevisiae
Procedure: as §1, §2
(§11) The minimum inhibitory concentration is defined as the lowest concentration of antifungal agent which inhibits visible growth. The disks containing concentrations of antifungal agents below the minimum inhibitory concentration show circumscribed growth of the fungus around the disk. Disks containing concentrations of antifungal agent at or above the minimum inhibitory concentration show no circumscribed growth.
(§12) Clinical isolates of various fungi listed in Table 1 were obtained from different patients diagnosed as having fungal infections. The fungal inocula were prepared by using a 24-48 hour cultures grown in yeast nitrogen base containing 1% glucose and 0.15% asparagine. After centrifuging, the supernatant was removed, the sedimented cells were washed twice with sterile distilled water and a cell suspension was adjusted to 80% transmission at 520 nm using a Beckman DB-GT grating spectrophotometer.
(§13) Sterile liquified 2% purified agar was placed in petri dishes and allowed to harden. The surface of the agar was inoculated with a sterile cotton swab saturated with a suspension of an organism. The uniformly swabbed plates were then allowed to dry.
(§14) Disks were prepared using the dilutions described above for amphotericin B, nystatin and 5-fluorocytosine. 0.05 ml of the dilutions of each antifungal agent diluted with the appropriate nutrient medium were pipetted on 6.5 mm diameter disks. The disks were dried at 4° C. after each application. Control disks were also prepared.
(§15) Several test disks and a control disk were placed in each petri dish containing the inoculated agar. The disks and petri dishes were then incubated at 29° C. and the minimum inhibitory concentration of the various concentrations of the antifungal agents were read at 6, 12, 24, 36 and 48 hours.
as §6

C. parapsilosis [5] = assay: MIC by broth dilution method, Candida parapsilosis; conditions: Lodderomyces parapsilosis
Excerpt: as §5, §6, §7, §8, §9, §10

Torulopsis glabrata [6] = assay: MIC by broth dilution method, Torulopsis glabrata; conditions: Nakaseomyces glabratus; Torulopsis glabrata; broth dilution method; read-out: Minimum Inhibitory Concentration, Broth
Excerpt: as §5, §6, §7, §8, §9, §10

Cryptococcus neoformans [7] = assay: MIC by impregnated disk method, Cryptococcus neoformans; conditions: Cryptococcus neoformans
Procedure: as §1, §2, §11, §12, §13, §14, §15, §6

C. tropicalis [8] = assay: MIC by impregnated disk method, Candida tropicalis; conditions: Candida tropicalis; C. tropicalis; disk method; read-out: Minimum Inhibitory Concentration, Disk
Procedure: as §1, §2, §3, §4

Candida albicans [9] = assay: MIC by broth dilution method, Candida albicans; conditions: Candida albicans
Excerpt: as §5, §6, §7, §8, §9, §10

C. parapsilosis [10] = assay: MIC by impregnated disk method, Candida parapsilosis; conditions: Lodderomyces parapsilosis
Procedure: as §1, §2, §11, §12, §13, §14, §15, §6

Candida albicans [11] = assay: MIC by impregnated disk method, Candida albicans; conditions: Candida albicans
Procedure: as §1, §2, §11, §12, §13, §14, §15, §6

Geotrichum candidum [12] = assay: MIC by broth dilution method, Geotrichum candidum; conditions: broth dilution method, read-out: Minimum Inhibitory Concentration, Broth
Excerpt: as §5, §6, §7, §8, §9, §10

Saccharomyces cerevisiae [13] = assay: MIC by broth dilution method, Saccharomyces cerevisiae; conditions: Saccharomyces cerevisiae
Excerpt: as §5, §6, §7, §8, §9, §10

Trichosporon sp. [14] = assay: MIC by broth dilution method, Trichosporon sp.; conditions: Trichosporon sp.; broth dilution method; read-out: Minimum Inhibitory Concentration, Broth
Excerpt: as §5, §6, §7, §8, §9, §10

C. tropicalis [15] = assay: MIC by broth dilution method, Candida tropicalis; conditions: Candida tropicalis; C. tropicalis; broth dilution method; read-out: Minimum Inhibitory Concentration, Broth
Excerpt: as §5, §6, §7, §8, §9, §10

Trichosporon sp. [16] = assay: MIC by impregnated disk method, Trichosporon sp.; conditions: Trichosporon sp.; disk method; read-out: Minimum Inhibitory Concentration, Disk
Procedure: as §1, §2, §3, §4

- MIC (Geotrichum candidum [1]): 2.5 µg/mL (≈ 19.4 µM)
- MIC (Cryptococcus neoformans [2]; C. neoformans isolate 2, read-out: Minimum Inhibitory Concentration, Broth): 12 µg/mL (≈ 93 µM)
- MIC (Cryptococcus neoformans [2]; Cryptococcus neoformans isolate 1, read-out: Minimum Inhibitory Concentration, Broth): 8.5 µg/mL (≈ 65.8 µM)
- MIC (Torulopsis glabrata [3]): 0.8 µg/mL (≈ 6.2 µM)
- MIC (Saccharomyces cerevisiae [4]; S. cerevisiae isolate 2, read-out: Minimum Inhibitory Concentration, Disk): 0.8 µg/mL (≈ 6.2 µM)
- MIC (Saccharomyces cerevisiae [4]; Saccharomyces cerevisiae isolate 1, read-out: Minimum Inhibitory Concentration, Disk): 1.5 µg/mL (≈ 11.6 µM)
- MIC (C. parapsilosis [5]; C. parapsilosis isolate 1, read-out: Minimum Inhibitory Concentration, Broth): 0.8 µg/mL (≈ 6.2 µM)
- MIC (C. parapsilosis [5]; C. parapsilosis isolate 2, read-out: Minimum Inhibitory Concentration, Broth): 2 µg/mL (≈ 15.5 µM)
- MIC (Torulopsis glabrata [6]): 0.7 µg/mL (≈ 5.42 µM)
- MIC (Cryptococcus neoformans [7]; C. neoformans isolate 2, read-out: Minimum Inhibitory Concentration, Disk): 15 µg/mL (≈ 116 µM)
- MIC (Cryptococcus neoformans [7]; Cryptococcus neoformans isolate 1, read-out: Minimum Inhibitory Concentration, Disk): 10 µg/mL (≈ 77.5 µM)
- MIC (C. tropicalis [8]): 7.5 µg/mL (≈ 58.1 µM)
- MIC (Candida albicans [9]; isolate 1, read-out: Minimum Inhibitory Concentration, Broth): 6.5 µg/mL (≈ 50.4 µM)
- MIC (Candida albicans [9]; isolate 2, read-out: Minimum Inhibitory Concentration, Broth): 0.6 µg/mL (≈ 4.65 µM)
- MIC (Candida albicans [9]; isolate 3, read-out: Minimum Inhibitory Concentration, Broth): 3 µg/mL (≈ 23.2 µM)
- MIC (Candida albicans [9]; isolate 4, read-out: Minimum Inhibitory Concentration, Broth): 3.5 µg/mL (≈ 27.1 µM)
- MIC (Candida albicans [9]; isolate 5, read-out: Minimum Inhibitory Concentration, Broth): 0.7 µg/mL (≈ 5.42 µM)
- MIC (Candida albicans [9]; isolate 6, read-out: Minimum Inhibitory Concentration, Broth): 0.7 µg/mL (≈ 5.42 µM)
- MIC (C. parapsilosis [10]; C. parapsilosis isolate 1, read-out: Minimum Inhibitory Concentration, Disk): 0.9 µg/mL (≈ 6.97 µM)
- MIC (C. parapsilosis [10]; C. parapsilosis isolate 2, read-out: Minimum Inhibitory Concentration, Disk): 1.5 µg/mL (≈ 11.6 µM)
- MIC (Candida albicans [11]; isolate 1, read-out: Minimum Inhibitory Concentration, Disk): 8.5 µg/mL (≈ 65.8 µM)
- MIC (Candida albicans [11]; isolate 2, read-out: Minimum Inhibitory Concentration, Disk): 0.3 µg/mL (≈ 2.32 µM)
- MIC (Candida albicans [11]; isolate 3, read-out: Minimum Inhibitory Concentration, Disk): 2 µg/mL (≈ 15.5 µM)
- MIC (Candida albicans [11]; isolate 4, read-out: Minimum Inhibitory Concentration, Disk): 6 µg/mL (≈ 46.5 µM)
- MIC (Candida albicans [11]; isolate 5, read-out: Minimum Inhibitory Concentration, Disk): 0.8 µg/mL (≈ 6.2 µM)
- MIC (Candida albicans [11]; isolate 6, read-out: Minimum Inhibitory Concentration, Disk): 0.5 µg/mL (≈ 3.87 µM)
- MIC (Geotrichum candidum [12]): 3 µg/mL (≈ 23.2 µM)
- MIC (Saccharomyces cerevisiae [13]; S. cerevisiae isolate 2, read-out: Minimum Inhibitory Concentration, Broth): 1 µg/mL (≈ 7.75 µM)
- MIC (Saccharomyces cerevisiae [13]; Saccharomyces cerevisiae isolate 1, read-out: Minimum Inhibitory Concentration, Broth): 2.5 µg/mL (≈ 19.4 µM)
- MIC (Trichosporon sp. [14]): 50 µg/mL (≈ 387 µM)
- MIC (C. tropicalis [15]): 6 µg/mL (≈ 46.5 µM)
- MIC (Trichosporon sp. [16]): 50 µg/mL (≈ 387 µM)
SMILES: Nc1nc(=O)[nH]cc1F [5-Fluorocytosine, 5-fluorocytosine]
